Where two headings read alike, the source gives them in different places.
Assay: Caco-2 Permeability Assay
Assay type: in vitro ADME
Settings: human
Procedure: Preparation of Caco-2 Cells: 50 μL and 25 mL of cell culture medium were added to each well of the Transwell insert and reservoir, respectively. The HTS transwell plates were incubated at 37° C., 5% CO2 for 1 hour before cell seeding. Caco-2 cells were diluted to 6.86×10^5 cells/mL with culture medium and 50 μL of cell suspension were dispensed into the filter well of the 96-well HTS Transwell plate. Cells were cultivated for 14-18 days in a cell culture incubator at 37° C., 5% CO2, 95% relative humidity. Cell culture medium was replaced every other day, beginning no later than 24 hours after initial plating.
Assessment of Cell Monolayer Integrity: Medium was removed from the reservoir and each Transwell insert and replaced with prewarmed fresh culture medium. Transepithelial electrical resistance (TEER) across the monolayer was measured using Millicell Epithelial Volt-Ohm measuring system (Millipore, USA). The Plate was returned to the incubator once the measurement was done. The TEER value was calculated according to the following equation:
TEER measurement(ohms)×Area of membrane(cm^2)=TEER value(ohm·cm^2)
TEER value should be greater than 230 ohm·cm^2, which indicates the well-qualified Caco-2 monolayer.
Preparation of Solutions: 2 mM stock solutions in DMSO of control compounds were prepared and diluted with HBSS (10 mM HEPES, pH 7.4) to get 10 μM working solution. 0.2 mM stock solutions of test compounds in DMSO were prepared and diluted with HBSS (10 mM HEPES, pH 7.4 with 0.5% BSA) to get 1 μM working solution. Metoprolol, erythromycin and cimetidine were used as control compounds.
Performing the Drug Transport Assay: The Caco-2 plate was removed from the incubator. The monolayer was washed twice with pre-warmed HBSS (10 mM HEPES, pH 7.4). The plate was incubated at 37° C. for 30 minutes. To determine the rate of drug transport in the apical to basolateral direction, 125 μL of the working solution was added to the Transwell insert (apical compartment). A 50 μL sample was transferred immediately from the apical compartment to 200 μL of acetonitrile containing IS (100 nM alprazolam, 200 nM Caffeine and 100 nM tolbutamide) in a new 96-well plate as the initial donor sample (A-B) and it was vortexed at 1000 rpm for 10 minutes. The wells in the receiver plate (basolateral compartment) were filled with 235 μL of transport buffer. To determine the rate of drug transport in the basolateral to apical direction, 285 μL of the working solution were added to the receiver plate wells (basolateral compartment). A 50 μL sample was transferred immediately from the basolateral compartment to 200 μL of acetonitrile containing IS (100 nM alprazolam, 200 nM Caffeine and 100 nM tolbutamide) in a new 96-well plate as the initial donor sample (B-A) and it was vortexed at 1000 rpm for 10 minutes. The Transwell insert (apical compartment) was filled with 75 μL of transport buffer. The apical to basolateral direction and the basolateral to apical direction need to be done at the same time. The plates were incubated at 37° C. for 2 hours. At the end of the incubation, 50 μL samples from donor sides (apical compartment for Ap→B1 flux, and basolateral compartment for B1→Ap) and receiver sides (basolateral compartment for Ap→B1 flux, and apical compartment for B1→Ap) were transferred to wells of a new 96-well plate, followed by the addition of 4 volume of acetonitrile containing IS (100 nM alprazolam, 200 nM Caffeine and 100 nM tolbutamide). Samples were vortexed for 10 minutes, 50 μL samples were transferred to wells of a new 96-well plate, followed by the addition of 50 μL Hepes and 200 μL IS. A11 samples were vortexed for 10 minutes, and then centrifuged at 3,220 g for 40 minutes. An aliquot of 150 μL of the supernatant was mixed with an appropriate volume of ultra-pure water before LC-MS/MS analysis.
Data analysis: All calculations were carried out using Microsoft Excel. Peak areas were determined from extracted ion chromatograms. […]

[1] = Caco-2, pH 7.4, apical to basolateral, read-out: Caco2 Papp (AB)
[2] = Caco-2, pH 7.4, basolateral to apical, read-out: Caco2 Papp (BA)
[3] = Caco-2, pH 7.4, +0.5% BSA, read-out: Caco 2 apparent permeability Papp (A−B)
[4] = Caco-2, pH 7.4, +0.5% BSA, read-out: Caco 2 apparent permeability Papp (B−A)

Row | Papp A→B at 2 h, 1 μM [1] [×10⁻⁶ cm/s] | Papp B→A at 2 h, 1 μM [2] [×10⁻⁶ cm/s] | Structure (SMILES) | Papp A→B at 2 h, 1 μM [3] [×10⁻⁶ cm/s] | Papp B→A at 2 h, 1 μM [4] [×10⁻⁶ cm/s]
1 | 2 to 10 | > 10 | C[C@@H](CO)n1cnc2c(-c3cccnc3)nc(-c3ccc(C4CC4)nc3)cc2c1=O [Compound 74] |  | 
2 | 2 to 10 | 2 to 10 | CC(C)(O)Cn1cnc2c(-c3cccnc3)nc(-c3ccc(Cl)cc3)cc2c1=O [Compound 18] |  | 
3 | > 10 | 2 to 10 | CC(C)(O)Cn1cnc2c(-c3cccnc3)nc(-c3ccc(C(F)(F)F)cn3)cc2c1=O [Compound 105] |  | 
4 | 2 to 10 | 2 to 10 | CC(C)(O)Cn1cnc2c(-c3cccnc3)nc(-c3ccc(C(F)(F)F)cc3)cc2c1=O [Compound 16] |  | 
5 | > 10 | 2 to 10 | Cc1ccc(-c2cc3c(=O)n([C@@H](C)CO)cnc3c(-c3cccnc3)n2)cc1 [Compound 17, (S)-3-(1-hydroxypropan-2-yl)-8-(pyridin-3-yl)-6-(p-tolyl)pyrido[3,4-d]pyrimidin-4(3H)-one] |  | 
6 | 2 to 10 | < 2 | Cn1cc(-c2nc(-c3ccc(Cl)cc3)cc3c(=O)n(CC(C)(C)O)cnc23)cn1 [Compound 21] |  | 
7 | 2 to 10 | < 2 | C[C@@H](CO)n1cnc2c(-c3cnn(C)c3)nc(-c3ccc(Cl)cc3)cc2c1=O [Compound 27] |  | 
8 | 2 to 10 | 2 to 10 | C[C@@H](CO)n1cnc2c(-c3cccc(F)c3)nc(-c3ccc(C(F)(F)F)nc3)cc2c1=O [Compound 8] |  | 
9 | < 2 | < 2 | C[C@@H](CO)n1cnc2c(-c3cccc(F)c3)nc(-c3ccc(C(F)(F)F)cn3)cc2c1=O [Compound 47, (S)-8-(3-fluorophenyl)-3-(1-hydroxypropan-2-yl)-6-(5-(trifluoromethyl)pyridin-2-yl)pyrido[3,4-d]pyrimidin-4(3H)-one] |  | 
10 | 2 to 10 | < 2 | Cn1cc(-c2nc(-c3ccc(C(F)(F)F)cn3)cc3c(=O)n(CC(C)(C)O)cnc23)cn1 [Compound 103, 3-(2-hydroxy-2-methylpropyl)-8-(1-methyl-1H-pyrazol-4-yl)-6-(5-(trifluoromethyl)pyridin-2-yl)pyrido[3,4-d]pyrimidin-4(3H)-one] |  | 
11 | 2 to 10 | > 10 | C[C@@H](CO)n1cnc2c(-c3cccnc3)nc(-c3ccc(C(F)(F)F)nc3)cc2c1=O [Compound 12] |  | 
12 | 2 to 10 | 2 to 10 | C[C@@H](CO)n1cnc2c(-n3ccnc3)nc(-c3ccc(OC(F)(F)F)cc3)cc2c1=O [Compound 44, (S)-3-(1-hydroxypropan-2-yl)-8-(1H-imidazol-1-yl)-6-(4-(trifluoromethoxy)-phenyl)pyrido[3,4-d]pyrimidin-4(3H)-one] |  | 
13 | 2 to 10 | 2 to 10 | C[C@@H](CO)n1cnc2c(-c3cccnc3)nc(-c3ccc(OC(F)(F)F)cc3)cc2c1=O [Compound 22] |  | 
14 | 2 to 10 | > 10 | C[C@H](n1cnc2c(-c3cccnc3)nc(-c3cccnc3)cc2c1=O)C(C)(C)O [Compound 34] |  | 
15 | 2 to 10 | < 2 | C[C@@H](n1cnc2c(-c3cnn(C)c3)nc(-c3ccc(Cl)cc3)cc2c1=O)C(C)(C)O [Compound 31] |  | 
16 | 2 to 10 | 2 to 10 | C[C@@H](n1cnc2c(-c3cccnc3)nc(-c3ccc(Cl)cc3)cc2c1=O)C(C)(C)O [Compound 33] |  | 
17 | > 10 | 2 to 10 | Cn1cc(-c2nc(-c3ccc(C(F)(F)F)nc3)cc3c(=O)n(CC(C)(C)O)cnc23)cn1 [Compound 60] |  | 
18 | 2 to 10 | < 2 | C[C@@H](CO)n1cnc2c(-c3cncc(F)c3)nc(-c3ccc(OC(F)(F)F)cc3)cc2c1=O [Compound 1, (S)-8-(5-fluoropyridin-3-yl)-3-(1-hydroxypropan-2-yl)-6-(4-(trifluoromethoxy)phenyl)pyrido[3,4-d]pyrimidin-4(3H)-one] |  | 

Row | Structure (SMILES) | Papp A→B at 2 h, 1 μM [1] [×10⁻⁶ cm/s] | Papp B→A at 2 h, 1 μM [2] [×10⁻⁶ cm/s] | Papp A→B at 2 h, 1 μM [3] [×10⁻⁶ cm/s] | Papp B→A at 2 h, 1 μM [4] [×10⁻⁶ cm/s]
19 | C[C@H](n1cnc2c(-c3cnn(C)c3)nc(-c3ccc(Cl)cc3)cc2c1=O)C(C)(C)O [Compound 30] | 2 to 10 | < 2 |  | 
20 | C[C@@H](CO)n1cnc2c(-c3cccc(F)c3)nc(-c3ccc(Cl)cc3)cc2c1=O [Compound 7] | < 2 | < 2 |  | 
21 | C[C@@H](CO)n1cnc2c(-c3cccnc3)nc(-c3ccc(C(F)(F)F)cn3)cc2c1=O [Compound 46, (S)-3-(1-hydroxypropan-2-yl)-8-(pyridin-3-yl)-6-(5-(trifluoromethyl)pyridin-2-yl)pyrido[3,4-d]pyrimidin-4(3H)-one] | > 10 | > 10 | 12.6 | 16.4
22 | CC(C)(O)Cn1cnc2c(-c3cccnc3)nc(-c3ccc(C(F)(F)F)nc3)cc2c1=O [Compound 9] | 2 to 10 | > 10 | 9.6 | 25
